Test results reported in ChEMBL document CHEMBL4339189, “Dissymmetric pyridyl-substituted 3,5-bis(arylidene)-4-piperidones as anti-hepatoma agents by inhibiting NF-κB pathway activation” (Eur J Med Chem, 2019).
Calls of active or inactive are those of the source. No cut-off for these calls is given here.

Assays:
HepG2 [1] = assay: Induction of apoptosis in human HepG2 cells xenografted in Balb/c nude mouse assessed as reduction in Bcl-2 protein expression at 10 mg/kg, ip administered every 2 days for 20 days and measured every 2 days by immunohistochemistry; assay type: functional, organism-based
HepG2 [2] = assay: Cytotoxicity against human HepG2 cells assessed as reduction in cell viability incubated for 24 hrs by MTT assay; assay type: functional, cell-based; settings: for IC50: HepG2, 24 h
HepG2 [3] = assay: Antitumor activity against human HepG2 cells xenografted in Balb/c nude mouse assessed as induction of incomplete cells at 10 mg/kg, ip administered every 2 days for 20 days and measured every 2 days by H and E staining based assay; assay type: functional, organism-based
QGY-7703 = assay: Cytotoxicity against human QGY7703 cells assessed as reduction in cell viability incubated for 24 hrs by MTT assay; assay type: functional, cell-based; settings: for IC50: QGY-7703, 24 h
[4] = Cytotoxicity against human HHL5 cells assessed as reduction in cell viability incubated for 24 hrs by MTT assay; assay type: cell-based; settings: HHL-5, 24 h
HepG2 [5] = assay: Antitumor activity against human HepG2 cells xenografted in Balb/c nude mouse assessed as induction of wrinkled abnormalities on cell morphology at 10 mg/kg, ip administered every 2 days for 20 days and measured every 2 days by H and E staining based assay; assay type: functional, organism-based
SMMC-7721 = assay: Cytotoxicity against human SMMC7721 cells assessed as reduction in cell viability incubated for 24 hrs by MTT assay; assay type: functional, cell-based; settings: for IC50: SMMC-7721, 24 h
HepG2 [6] = assay: Antitumor activity against human HepG2 cells xenografted in Balb/c nude mouse assessed as tumor volume level at 10 mg/kg, ip administered every 2 days for 20 days and measured every 2 days; assay type: functional
Mus musculus = assay: Antiinflammatory activity in human HepG2 cells xenografted Balb/c nude mouse assessed as reduction in TNFalpha protein expression at 10 mg/kg, ip administered every 2 days for 20 days and measured every 2 days by immunohistochemistry; assay type: functional, organism-based
L02 = assay: Cytotoxicity against human LO2 cells assessed as reduction in cell viability incubated for 24 hrs by MTT assay; assay type: cell-based; settings: L02, 24 h
RAW264.7 [7] = assay: Antiinflammatory activity in mouse RAW264.7 cells assessed as inhibition of LPS-stimulated IL-6 production 6.0 uM preincubated for 2 hrs followed by LPS stimulaton measured after 22 hrs by ELISA relative to control; assay type: functional
RAW264.7 [8] = assay: Antiinflammatory activity in mouse RAW264.7 cells assessed as inhibition of LPS-stimulated TNF-alpha production at 6.0 uM preincubated for 2 hrs followed by LPS stimulaton measured after 22 hrs by ELISA relative to control; assay type: functional
RAW264.7 [9] = assay: Cytotoxicity against mouse RAW264.7 cells assessed as reduction in cell viability at 6.0 uM incubated for 24 hrs by MTT assay; assay type: cell-based; settings: raw264.7, 24 h

| SMILES | Activity (HepG2 [1]) | Activity (HepG2 [2]) | Activity (HepG2 [3]) | Activity (QGY-7703) | IC50 (QGY-7703) [µM] | IC50 [4] [µM] | Activity (HepG2 [5]) | Activity (SMMC-7721) | IC50 (SMMC-7721) [µM] | Activity (HepG2 [6]) [mm3] | Activity (Mus musculus) | IC50 (L02) [µM] | IC50 (HepG2 [2]) [µM] | inhibition (RAW264.7 [7]) | inhibition (RAW264.7 [8]) | Activity (RAW264.7 [9]) |
| --- | --- | --- | --- | --- | --- | --- | --- | --- | --- | --- | --- | --- | --- | --- | --- | --- |
| COc1cccc2c1C(=O)c1c(O)c3c(c(O)c1C2=O)C[C@@](O)(C(=O)CO)C[C@@H]3O[C@H]1C[C@H](N)[C@H](O)[C@H](C)O1 [DOXORUBICIN] | Active | Dose-dependent effect | Active | Dose-dependent effect | 1.37 | 12.2 | Active | Dose-dependent effect | 2.75 | <200 | Active | – | – | – | – | – |
| CC(=O)Nc1ccc(S(=O)(=O)N2C/C(=C\c3cccnc3)C(=O)/C(=C/c3ccccc3C(F)(F)F)C2)cc1 | – | – | – | – | 5.38 | > 20 | – | – | 9.83 | – | – | 15.3 | 4.33 | Active | Active | Non-Toxic |
| O=C1/C(=C/c2cccnc2)CN(S(=O)(=O)c2ccc(C(F)(F)F)cc2)C/C1=C\c1ccccc1F | – | – | – | – | 4.5 | 14.3 | – | – | 7.9 | – | – | 11.3 | 2.4 | Active | Active | Non-Toxic |
| O=C1/C(=C/c2cccnc2)CN(S(=O)(=O)c2ccccc2)C/C1=C\c1ccccc1F | – | – | – | – | 4.8 | 14 | – | – | 19.1 | – | – | 15.3 | 8.21 | inactive | inactive | Non-Toxic |
